In patent US10947201B2, “Certain chemical entities, compositions, and methods” (NEUPHARMA, INC., priority 2015, dated 2021) one finds IC50 and inhibition data, which are given here for 11 molecules.

For one experiment, the system named is A549 cells. Nature of the experiment: MTT cell growth inhibition assay, A549. The experiment is classed as cell-based. To be noted: Homo sapiens, A549 cells (KRAS mutation), 72 h. How it is done:
(§1) Inhibition of cell growth by compounds was measured using MTT assay (Mosmann, T., Journal of Immunological Methods, 1983, 65, 55-63). Tumor cell lines were purchased from ATCC (American Type Culture Collection, Manassas, Va.). All cell lines were maintained in RPMI 1640 (Hyclone) supplemented with 10% fetal bovine serum (FBS, Hyclone), glutamine (2 mM, Hyclone), and antibiotics (penicillin 100 U/mL and streptomycin 50 μg/mL) at 37° C. in a humidified atmosphere of 5% CO2 in air. Taxol (as a positive control, Sigma) and compounds were dissolved in DMSO (Sigma), and the final concentration of DMSO in the medium was 1%. Tumor cells were plated in 96-well plates at densities of about 4000 cells/well of a 96-well plate and allowed to adhere/grow for 24 h. They were then treated with various concentrations of drug for 72 h. 3-(4,5-Dimethylthiazol-2-yl)-2,5-diphenyltetrazolium bromide (MTT, Sigma) was used to determine the number of viable cells at the time of compound addition and the number of cells remaining after 72 h compound exposure. The number of cells remaining after 72 h was compared to the number of viable cells at the time of compound addition by measuring the absorbance at 570 nm, allowing for the calculation of growth inhibition.
(§2) All concentrations of compounds were tested in triplicate and controls were averaged over 4 wells. IC50 was calculated by plotting the concentration of compound vs the percentage of inhibition in treated wells using GraphPad Prism 5.
(§3) Tables 5 show IC50 values of several compounds of the invention in A549, A431, H1299, and H1975 human cancer cells. A549 cells have a mutation on KRAS, H3255 cells have L858R mutation, and H1975 cells have double EGFR mutations (L858R/T790M). The scale utilized in Table 5 is as follows: +++ less than 100 nM; ++ between 100 nM and 500 nM; and + greater than 500 nM.

The next experiment has as its system H1975 cells. Nature of the experiment: MTT cell growth inhibition assay, H1975. To be noted: Homo sapiens, NCI-H1975, H1975 cells (EGFR L858R/T790M), 72 h. It is filed as cell-based. The protocol: as §1, §2, §3
Another experiment addresses T1, EGFR (ErbB1) (Homo sapiens, UniProt P00533).
T1 construct: purchased Invitrogen
The experiment can be described thus: Z'-LYTE kinase inhibition assay (Invitrogen), EGFR. The experiment is classed as biochemical. To be noted: for inhibition at 0.1 µM: compound at 100 nM, [ATP] = Km; for inhibition at 0.041 µM: compound at 41 nM, 10 μM of ATP. The protocol:
(§4) Inhibitory activities of compounds against BTK, EGFR and EGFR mutants (EGFR L858R/T790M) were measured by Invitrogen using Z′-LYTE® Method as briefly described in the following.
(§5) Test Compounds are screened in 1% DMSO (final) in the well. For 10 point titrations, 3-fold serial dilutions are conducted from the starting concentration. All ATP Solutions are diluted to a 4× working concentration in Kinase Buffer (50 mM HEPES pH 7.5, 0.01% BRIJ-35, 10 mM MgCl2, 1 mM EGTA). Peptide/Kinase Mixtures are diluted to a 2× working concentration in the appropriate Kinase Buffers as described below.
(i) Peptide/Kinase Mixtures for measurement of EGFR (ErbB1):
The 2×EGFR (ErbB1)/Tyr 04 mixture is prepared in 50 mM HEPES pH 7.5, 0.01% BRIJ-35, 10 mM MgCl2, 4 mM MnCl2, 1 mM EGTA, 2 mMDTT. The final 10 μL Kinase Reaction consists of 1.1-5.25 ng EGFR (ErbB1) and 2 μM Tyr 04 in 50 mM HEPES pH 7.5, 0.01% BRIJ-35, 10 mM MgCl2, 2 mM MnCl2, 1 mM EGTA, 1 mM DTT. After the 1 hour Kinase Reaction incubation, 5 μL of a 1:64 dilution of DevelopmentReagent B is added.
(§6) Reaction starts by 30-second shaking of mixture consisting of 2.5 μL 4× test compound, 5 μL 2× kinase reaction mixture and 2.5 μL 4×ATP Solution on Bar-coded Corning, low volume NBS, black 384-well plate (Corning Cat. #3676). Then the mixture is incubated for 60-minute at room temperature for the kinase reaction, followed by addition of 5 μL of a 1:1024 dilution of development reagent A and 30-second plate shake. The mixture is then incubated for another 60-minute at room temperature for development reaction. Finally fluorescence is read by plate reader. […] The scale utilized in Tables 2 and 3 is as follows: ++ more than 50% inhibition and + less than 50% inhibition.
(§7) To determine IC50 of a compound against EGFR or EGFR mutants, a series of concentrations of the compound were tested for the inhibition. IC50 was calculated by plotting the concentration of compound vs the percentage of inhibition in treated wells using GraphPad Prism 5. […] The scale utilized in Table 4 is as follows: ++ less than 100 nM and + greater than 100 nM.

The next experiment has as its target T2, BTK (Homo sapiens, UniProt Q06187).
T2 construct: purchased Invitrogen
Nature of the experiment: Z'-LYTE kinase inhibition assay (Invitrogen), BTK. It is filed as biochemical. To be noted: for inhibition at 0.1 µM: compound at 100 nM, [ATP] = Km. How it is done: as §4, §5
(v) Peptide/Kinase Mixtures for measurement of BTK:
The 2×BTK/Tyr 01 mixture is prepared in 50 mM HEPES pH 7.5, 0.01% BRIJ-35, 10 mM MgCl2, 1 mM EGTA. The final 10 μL Kinase Reaction consists of 1.04-10.4 ng BTK and 2 μM Tyr 01 in 50 mM HEPES pH 7.5, 0.01% BRIJ-35, 10 mM MgCl2, 1 mM EGTA. After the 1 hour Kinase Reaction incubation, 5 μL of a 1:256 dilution of Development Reagent B is added.
as §6, §7

A further experiment concerns the target T3, EGFR (ErbB1) T790M L858R (Homo sapiens, UniProt P00533, L858R/T790M).
T3 construct: purchased Invitrogen
The experiment can be described thus: Z'-LYTE kinase inhibition assay (Invitrogen), EGFR L858R/T790M. The experiment is classed as biochemical. To be noted: for inhibition at 0.1 µM: compound at 100 nM, [ATP] = Km; for inhibition at 0.0137 µM: compound at 13.7 nM, 10 μM of ATP. How it is done: as §4, §5
(iv) Peptide/Kinase Mixtures for measurement of EGFR (ErbB1) T790M L858R:
The 2×EGFR (ErbB1) T790M L858R/Tyr 04 mixture is prepared in 50 mM HEPES pH 6.5, 0.01% BRIJ-35, 10 mM MgCl2, 1 mM EGTA, 0.02% NaN3. The final 10 μL Kinase Reaction consists of 0.38-4.22 ng EGFR (ErbB1) T790M L858R and 2 μM Tyr 04 in 50 mM HEPES pH 7.0, 0.01% BRIJ-35, 10 mM MgCl2, 1 mM EGTA, 0.01% NaN3. After the 1 hour Kinase Reaction incubation, 5 μL of a 1:64 dilution of Development Reagent B is added.
as §6, §7

Another experiment deals with A431 cells. The experiment can be described thus: MTT cell growth inhibition assay, A431. To be noted: Homo sapiens, A-431, 72 h. The experiment is classed as cell-based. How it is done:
as §1, §2, §3

T2 sequence (Q06187 whole entry): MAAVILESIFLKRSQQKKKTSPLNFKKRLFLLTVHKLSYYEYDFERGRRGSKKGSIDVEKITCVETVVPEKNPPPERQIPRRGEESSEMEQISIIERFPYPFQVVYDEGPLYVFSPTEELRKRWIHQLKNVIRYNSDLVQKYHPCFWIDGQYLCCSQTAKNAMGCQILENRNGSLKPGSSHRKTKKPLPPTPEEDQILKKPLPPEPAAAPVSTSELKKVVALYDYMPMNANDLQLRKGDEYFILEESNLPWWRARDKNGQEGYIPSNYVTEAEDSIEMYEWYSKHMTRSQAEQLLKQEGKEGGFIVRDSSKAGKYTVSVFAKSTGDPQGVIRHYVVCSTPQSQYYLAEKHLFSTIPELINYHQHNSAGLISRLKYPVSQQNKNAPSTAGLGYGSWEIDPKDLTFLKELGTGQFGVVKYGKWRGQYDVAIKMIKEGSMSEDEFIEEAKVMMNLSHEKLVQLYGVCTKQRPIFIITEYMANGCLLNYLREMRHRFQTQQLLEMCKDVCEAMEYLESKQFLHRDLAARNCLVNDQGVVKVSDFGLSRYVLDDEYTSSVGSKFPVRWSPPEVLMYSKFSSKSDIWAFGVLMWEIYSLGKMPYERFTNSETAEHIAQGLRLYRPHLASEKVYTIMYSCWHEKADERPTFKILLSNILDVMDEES
T3 sequence (P00533 25-1210 T790M/L858R): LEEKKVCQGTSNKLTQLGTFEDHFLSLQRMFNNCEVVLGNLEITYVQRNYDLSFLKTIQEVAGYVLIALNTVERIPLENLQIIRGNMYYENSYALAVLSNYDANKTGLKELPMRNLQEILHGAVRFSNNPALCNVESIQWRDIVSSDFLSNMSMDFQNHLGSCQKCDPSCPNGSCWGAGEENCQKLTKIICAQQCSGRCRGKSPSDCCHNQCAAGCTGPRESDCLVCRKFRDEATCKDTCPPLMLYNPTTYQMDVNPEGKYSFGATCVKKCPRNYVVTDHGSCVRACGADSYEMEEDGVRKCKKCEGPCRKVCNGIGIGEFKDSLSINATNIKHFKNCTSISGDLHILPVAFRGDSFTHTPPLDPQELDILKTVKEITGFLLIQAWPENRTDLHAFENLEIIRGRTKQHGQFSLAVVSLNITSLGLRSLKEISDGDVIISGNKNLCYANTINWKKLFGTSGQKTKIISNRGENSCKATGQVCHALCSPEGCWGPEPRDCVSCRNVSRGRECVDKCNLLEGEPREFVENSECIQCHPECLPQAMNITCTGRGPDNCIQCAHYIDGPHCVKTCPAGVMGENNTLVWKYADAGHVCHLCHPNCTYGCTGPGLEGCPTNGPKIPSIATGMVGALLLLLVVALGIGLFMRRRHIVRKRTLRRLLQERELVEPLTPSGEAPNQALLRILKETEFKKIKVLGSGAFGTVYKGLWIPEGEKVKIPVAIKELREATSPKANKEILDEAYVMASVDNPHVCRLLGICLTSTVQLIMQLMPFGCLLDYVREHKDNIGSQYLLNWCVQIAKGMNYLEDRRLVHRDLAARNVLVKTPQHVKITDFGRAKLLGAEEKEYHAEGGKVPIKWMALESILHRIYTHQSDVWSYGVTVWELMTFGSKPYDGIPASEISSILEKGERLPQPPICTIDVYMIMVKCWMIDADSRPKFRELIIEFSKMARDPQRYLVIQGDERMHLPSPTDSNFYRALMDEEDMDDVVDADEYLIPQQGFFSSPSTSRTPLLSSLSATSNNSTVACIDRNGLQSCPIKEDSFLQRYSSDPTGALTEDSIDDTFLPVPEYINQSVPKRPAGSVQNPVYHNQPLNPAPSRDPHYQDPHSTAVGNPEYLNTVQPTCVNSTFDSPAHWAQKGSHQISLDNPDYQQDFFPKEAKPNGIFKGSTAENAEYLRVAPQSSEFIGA
T1 sequence (P00533 25-1210): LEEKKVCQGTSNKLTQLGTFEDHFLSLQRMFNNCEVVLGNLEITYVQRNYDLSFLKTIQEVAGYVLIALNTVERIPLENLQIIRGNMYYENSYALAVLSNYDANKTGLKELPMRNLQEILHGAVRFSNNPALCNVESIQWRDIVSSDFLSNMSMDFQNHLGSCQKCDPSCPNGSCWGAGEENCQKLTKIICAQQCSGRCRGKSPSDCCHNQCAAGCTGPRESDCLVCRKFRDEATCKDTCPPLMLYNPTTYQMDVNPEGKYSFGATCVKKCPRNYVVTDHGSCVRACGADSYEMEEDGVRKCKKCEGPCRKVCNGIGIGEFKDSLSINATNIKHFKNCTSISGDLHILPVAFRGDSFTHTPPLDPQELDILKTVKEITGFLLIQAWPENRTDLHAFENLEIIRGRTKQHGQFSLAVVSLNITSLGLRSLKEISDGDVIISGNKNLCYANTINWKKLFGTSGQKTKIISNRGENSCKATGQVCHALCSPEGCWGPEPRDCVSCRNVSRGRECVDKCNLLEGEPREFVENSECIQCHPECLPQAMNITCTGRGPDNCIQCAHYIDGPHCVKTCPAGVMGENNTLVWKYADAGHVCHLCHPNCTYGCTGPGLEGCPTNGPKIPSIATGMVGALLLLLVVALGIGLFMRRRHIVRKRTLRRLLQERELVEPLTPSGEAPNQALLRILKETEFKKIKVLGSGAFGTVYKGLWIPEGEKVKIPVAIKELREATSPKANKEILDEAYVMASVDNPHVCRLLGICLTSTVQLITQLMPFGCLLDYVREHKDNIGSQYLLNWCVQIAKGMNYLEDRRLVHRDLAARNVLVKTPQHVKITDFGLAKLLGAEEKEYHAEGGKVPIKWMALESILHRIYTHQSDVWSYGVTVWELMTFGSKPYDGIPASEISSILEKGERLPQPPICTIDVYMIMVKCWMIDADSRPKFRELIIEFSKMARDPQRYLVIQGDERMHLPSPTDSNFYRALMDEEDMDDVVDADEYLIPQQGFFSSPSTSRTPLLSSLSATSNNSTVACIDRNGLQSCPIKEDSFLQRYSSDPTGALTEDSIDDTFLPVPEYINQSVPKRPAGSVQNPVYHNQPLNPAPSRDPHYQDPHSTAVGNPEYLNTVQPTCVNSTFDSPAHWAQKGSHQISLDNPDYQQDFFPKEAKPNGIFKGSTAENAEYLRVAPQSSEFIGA

Turning to `C=CC(=O)Nc1cc(Nc2ncc3cccc(-c4cccc(Cl)c4)c3n2)c(OC)cc1N(C)CCN(C)C` [Example C017, N-(5-((8-(3-chlorophenyl)quinazolin-2-yl)amino)-2-((2-(dimethylamino)ethyl)(methyl)amino)-4-methoxyphenyl)acrylamide], the IC50 was 100 to 500 nM with A549 cells and under 100 nM in the experiment on H1975 cells. Besides, the inhibition at 0.1 µM on EGFR (ErbB1), at BTK and on EGFR (ErbB1) T790M L858R was over 50% in each case.
As to `C=CC(=O)Nc1cc(Nc2ncc3cccc(-c4cccc(F)c4)c3n2)c(OC)cc1N(C)CCN(C)C` [Example C018, N-(2-((2-(dimethylamino)ethyl)(methyl)amino)-5-((8-(3-fluorophenyl)quinazolin-2-yl)amino)-4-methoxyphenyl)acrylamide], the IC50 was 100 to 500 nM in the experiment with A549 cells and under 100 nM in the experiment with H1975 cells. For the same molecule, the inhibition at 0.1 µM on EGFR (ErbB1), at BTK and against EGFR (ErbB1) T790M L858R was over 50% throughout.
Consider `C=CC(=O)Nc1cc(Nc2ncc3cccc(-c4cccc(F)c4)c3n2)ccc1N1CCC(N(C)C)C1` (stereo not shown) [Example C024, N-(2-(3-(dimethylamino)pyrrolidin-1-yl)-5-((8-(3-fluorophenyl)quinazolin-2-yl)amino)phenyl)acrylamide], for which the IC50 with A549 cells is 100 to 500 nM; in the experiment with H1975 cells, under 100 nM; in the experiment on A431 cells, under 100 nM. In addition, at BTK, the inhibition at 0.1 µM is over 50%.
On to `C=CC(=O)Nc1cc(Nc2ncc3cccc(-c4ccccc4Cl)c3n2)ccc1N(C)CCN(C)C` [Example C008, N-(5-((8-(2-chlorophenyl)quinazolin-2-yl)amino)-2-((2-(dimethylamino)ethyl)(methyl)amino)phenyl) acrylamide], for which the IC50 in the experiment on A549 cells and in the experiment with H1975 cells was 100 to 500 nM throughout. In addition, the inhibition at 0.041 µM against EGFR (ErbB1) is under 50%; on BTK (compound at 41 nM, 10 μM of ATP) it was over 50%. Also, the values for the inhibition at 0.1 µM at EGFR (ErbB1), against BTK and at EGFR (ErbB1) T790M L858R were under 50%, over 50% and under 50%, respectively. This molecule yielded an inhibition at 0.0137 µM against EGFR (ErbB1) T790M L858R of over 50%.
`C=CC(=O)Nc1cc(Nc2ncc3cccc(OC)c3n2)ccc1N(C)CCN(C)C` [Example C003, N-(2-((2-(dimethylamino)ethyl)(methyl)amino)-5-((8-methoxyquinazolin-2-yl)amino)phenyl)acrylamide]: the IC50 in the experiment with A549 cells is over 500 nM; in the experiment on H1975 cells it was under 100 nM; with A431 cells it was 100 to 500 nM. For the same molecule, the inhibition at 0.1 µM against BTK and at EGFR (ErbB1) T790M L858R was under 50% each time. The molecule also returned an inhibition at 0.0137 µM against EGFR (ErbB1) T790M L858R of under 50%.
`C=CC(=O)Nc1cc(Nc2ncc3cccc(-c4cccc(F)c4)c3n2)c(OC)cc1N1CCC(N(C)C)C1` (stereo not shown) [Example C023, N-(2-(3-(dimethylamino)pyrrolidin-1-yl)-5-((8-(3-fluorophenyl)quinazolin-2-yl)amino)-4-methoxyphenyl)acrylamide]: the IC50 was over 500 nM in the experiment with A549 cells, under 100 nM with H1975 cells and under 100 nM in the experiment on A431 cells. The inhibition at 0.1 µM at BTK was over 50%.
With `C=CC(=O)Nc1cc(Nc2ncc3cccc(-c4cccc(F)c4)c3n2)c(OC)cc1OC1CCN(C)C1` (stereo not shown) [Example C019, N-(5-((8-(3-fluorophenyl)quinazolin-2-yl)amino)-4-methoxy-2-((1-methylpyrrolidin-3-yl)oxy)phenyl)acrylamide], the IC50 is 100 to 500 nM in the experiment with A549 cells and under 100 nM in the experiment on H1975 cells. Further, the inhibition at 0.1 µM on EGFR (ErbB1), against BTK and against EGFR (ErbB1) T790M L858R was over 50% throughout.
As to `C=CC(=O)Nc1cc(Nc2ncc3cccc(-c4cccc(Cl)c4)c3n2)c(OC)cc1OC1CCN(C)C1` (stereo not shown) [Example C020, N-(5-((8-(3-chlorophenyl)quinazolin-2-yl)amino)-4-methoxy-2-((1-methylpyrrolidin-3-yl)oxy)phenyl)acrylamide], the IC50 is 100 to 500 nM in the experiment with A549 cells and under 100 nM in the experiment with H1975 cells. The inhibition at 0.1 µM at EGFR (ErbB1), against BTK and at EGFR (ErbB1) T790M L858R was over 50% each time.
With `C=CC(=O)Nc1cc(Nc2ncc3cccc(-c4cccc(Cl)c4)c3n2)ccc1N1CCOCC1` [Example C016, N-(5-((8-(3-chlorophenyl)quinazolin-2-yl)amino)-2-morpholinophenyl)acrylamide], the IC50 in the experiment on H1975 cells is under 100 nM. At EGFR (ErbB1), this molecule displayed an inhibition at 0.041 µM of under 50% and an inhibition at 0.1 µM of under 50%. For the same molecule, on BTK, the inhibition at 0.1 µM was under 50%. Also, at EGFR (ErbB1) T790M L858R, the inhibition at 0.0137 µM is under 50% and the inhibition at 0.1 µM is under 50%.
With `C=CC(=O)Nc1cc(Nc2ncc3cccc(-c4cccc(Cl)c4)c3n2)ccc1OCCOC` [Example C015, N-(5-((8-(3-chlorophenyl)quinazolin-2-yl)amino)-2-(2-methoxyethoxy)phenyl)acrylamide], the IC50 in the experiment on H1975 cells was over 500 nM. This molecule came in with an inhibition at 0.041 µM against EGFR (ErbB1) of under 50%. The inhibition at 0.1 µM at EGFR (ErbB1), at BTK and against EGFR (ErbB1) T790M L858R was under 50% each time. The molecule further registered an inhibition at 0.0137 µM against EGFR (ErbB1) T790M L858R of under 50%.
`C=CC(=O)Nc1cc(Nc2ncc3cccc(-c4cccc(F)c4)c3n2)ccc1N1CC(N(C)C)C1` [Example C025, N-(2-(3-(dimethylamino)azetidin-1-yl)-5-((8-(3-fluorophenyl)quinazolin-2-yl)amino)phenyl)acrylamide]: the IC50 is 100 to 500 nM in the experiment on A549 cells, under 100 nM in the experiment with H1975 cells and under 100 nM in the experiment on A431 cells. Moreover, the inhibition at 0.1 µM against BTK is over 50%.

The term IC50 denotes the concentration needed to halve the response being measured. In general, inhibition refers to the share of the control response that was lost under treatment. A higher inhibition goes with strong suppression.
